Results published in patent US10681909B2, “Herbicidal triazoles” (FMC Corporation, priority 2014, dated 2020).

Experiments:
[1] = tested on: ragweed; experiment: Test A preemergence; format: in vivo, Ambrosia elatior; details: 0 to 100 scale (0 no effect, 100 complete control)
Outline: (§1)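 Weed and crop species in loam–sand blend sprayed preemergence on soil or postemergence at 2–10 cm, one- to two-leaf stage, with chemicals in surfactant-containing solvent. Injury rated visually after ~10 d in greenhouse versus untreated controls on a 0–100 scale (100 = complete control).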

[2] = tested on: ryegrass, Italian; experiment: Test A preemergence; format: in vivo, Lolium multiflorum; details: 0 to 100 scale (0 no effect, 100 complete control)
Outline: as §1

[3] = tested on: morningglory; experiment: Test C preemergence; format: in vivo, Ipomoea coccinea; details: for Plant response rating (scale of 0 to 100 where 0 is no effect and 100 is complete control): Morningglory, preemergence; for Morningglory plant response rating (0 to 100): Preemergence, visual rating after 13 to 15 d
Source text: Seeds of plant species selected from blackgrass (Alopecurus myosuroides), ryegrass, Italian (Italian ryegrass, Lolium multiflorum), wheat (winter wheat, Triticum aestivum), galium (catchweed bedstraw, Galium aparine), corn (Zea mays), crabgrass, large (large crabgrass, Digitaria sanguinalis), foxtail, giant, (giant foxtail, Setaria faberii), johnsongrass (Sorghum halepense), lambsquarters (Chenopodium album), morningglory (Ipomoea coccinea), nutsedge, yellow (yellow nutsedge, Cyperus esculentus), pigweed (Amaranthus retroflexus), ragweed (common ragweed, Ambrosia elatior), soybean (Glycine max), barnyardgrass (Echinochloa crus-galli), oilseed rape (Brassica napus), waterhemp (common waterhemp, Amaranthus rudis), and velvetleaf (Abutilon theophrasti) were planted into a blend of loam soil and sand and treated preemergence with test chemicals formulated in a non-phytotoxic solvent mixture which included a surfactant. At the same time, plants selected from these crop and weed species and also chickweed (common chickweed, Stellaria media), oat, wild (wild oat, Avena fatua), and kochia (Kochia scoparia), were planted in pots containing Sunshine Redi-Earth® planting medium comprising spaghnum peat moss, vermiculite, starter nutrients and dolomitic limestone and treated with postemergence applications of test chemicals formulated in the same manner. Plants ranged in height from 2 to 18 cm (1- to 4-leaf stage) for postemergence treatments. […] A dash (-) response means no test result.

[4] = tested on: chamomile; experiment: Test D preemergence; format: in vivo, Matricaria inodora; details: for Plant response rating (0 to 100), Chamomile: 16 g ai/ha, 0 is no effect, 100 is complete control; for Plant response rating: Chamomile: scale 0 to 100
Source text: (§2) Seeds of plant species selected from bluegrass (annual bluegrass, Poa annua), blackgrass (Alopecurus myosuroides), canarygrass (Phalaris minor), chickweed (common chickweed, Stellaria media), galium (catchweed bedstraw, Galium aparine), bromegrass, down (downy bromegrass, Bromus tectorum), Russian thistle (Salsola kali), field poppy (Papaver rhoeas), field violet (Viola arvensis), foxtail, green (green foxtail, Setaria viridis), deadnettle (henbit deadnettle, Lamium amplexicaule), ryegrass, Ital. (Italian ryegrass, Lolium multiflorum), kochia (Kochia scoparia), lambsquarters (Chenopodium album), oilseed rape (Brassica napus), pigweed (Amaranthus retroflexus), chamomile (scentless chamomile, Matricaria inodora), speedwell (bird's-eye speedwell, Veronica persica), barley, spring (spring barley, Hordeum vulgare), wheat, spring (spring wheat, Triticum aestivum), buckwheat, wild (wild buckwheat, Polygonum convolvulus), wild mustard (Sinapis arvensis), oat, wild (wild oat, Avena fatua), radish, wild (wild radish, Raphanus raphanistrum), […]), barley, winter (winter barley, Hordeum vulgare), and wheat, winter (winter wheat, Triticum aestivum) were planted into a silt loam soil and treated preemergence with test chemicals formulated in a non-phytotoxic solvent mixture which included a surfactant. At the same time, these species were planted in pots containing Sunshine Redi-Earth® planting medium comprising spaghnum peat moss, vermiculite, starter nutrients and dolomitic limestone and treated with postemergence applications of the test chemicals formulated in the same manner. Plants ranged in height from 2 to 18 cm (1- to 4-leaf stage). Treated plants and controls were maintained in a controlled growth environment for 14 to 21 d after which time all species were compared to controls and visually evaluated. […] A dash (-) response means no test result.

[5] = tested on: blackgrass; experiment: Test D postemergence; format: in vivo, Alopecurus myosuroides; details: scale 0 to 100
Source text: as §2

[6] = tested on: foxtail, green; experiment: Test D postemergence; format: in vivo, Setaria viridis; details: scale 0 to 100
Source text: as §2

[7] = tested on: pigweed; experiment: Test D postemergence; format: in vivo, Amaranthus retroflexus; details: scale 0 to 100
Source text: as §2

[8] = tested on: crabgrass, large; experiment: Test A preemergence; format: in vivo, Digitaria sanguinalis; details: Digitaria sanguinalis, pre-emergence, 240 h, 0 to 100 scale (0 no effect, 100 complete control), read-out: Plant response rating, Crabgrass, Large
Outline: (§3)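 Herbicidal response was scored on plants treated pre- or postemergence with surfactant-containing, non-phytotoxic solvent formulations. Preemergence meant a directed spray onto soil (loam–sand) holding sown seed; postemergence plants were at one to two leaves.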

[9] = tested on: morningglory; experiment: Test A postemergence; format: in vivo, Ipomoea spp.; details: Ipomoea, post-emergence, 240 h, 0 to 100 scale (0 no effect, 100 complete control), approx. 10 d, read-out: Plant response rating, Morningglory
Outline: as §3

| SMILES | Plant response rating, Ragweed ([1]; 125 g ai/ha) | Plant response rating, Ryegrass, Italian ([2]; 125 g ai/ha) | Plant response rating (scale of 0 to 100 where 0 is no effect and 100 is complete control) ([3]; 125 g ai/ha) | Plant response rating (scale of 0 to 100 where 0 is no effect and 100 is complete control) ([3]; 250 g ai/ha) | Morningglory plant response rating (0 to 100) ([3]; 31 g ai/ha) | Morningglory plant response rating (0 to 100) ([3]; 62 g ai/ha) | Plant response rating (0 to 100), Chamomile [4] | Plant response rating: Chamomile ([4]; 31 g ai/ha) | Plant response rating: Chamomile ([4]; 62 g ai/ha) | Plant response rating: Chamomile ([4]; 125 g ai/ha) | Plant response rating: Blackgrass ([5]; 16 g ai/ha) | Plant response rating: Blackgrass ([5]; 31 g ai/ha) | Plant response rating: Blackgrass ([5]; 62 g ai/ha) | Plant response rating: Blackgrass ([5]; 125 g ai/ha) | Plant response rating: Foxtail, Green ([6]; 31 g ai/ha) | Plant response rating: Foxtail, Green ([6]; 62 g ai/ha) | Plant response rating: Foxtail, Green ([6]; 125 g ai/ha) | Plant response rating: Pigweed ([7]; 31 g ai/ha) | Plant response rating: Pigweed ([7]; 62 g ai/ha) | Plant response rating: Pigweed ([7]; 125 g ai/ha) | other results |
| --- | --- | --- | --- | --- | --- | --- | --- | --- | --- | --- | --- | --- | --- | --- | --- | --- | --- | --- | --- | --- | --- |
| Fc1ccc(-c2nc(OCC(F)(F)F)n(Cc3ccnc(C(F)(F)F)c3)n2)cc1 [Compound 30] | 80 | 90 | 60 | 90 | 35 | 35 | 30 | 40 | 100 | 100 | 45 | 60 | 65 | 75 | 75 | 85 | 90 | 100 | 100 | 100 | Plant response rating, Ragweed ([1]; 500 g ai/ha, approx. 10 d): 80; Plant response rating, Ryegrass, Italian ([2]; 500 g ai/ha, approx. 10 d): 100; Plant response rating: Foxtail, Green ([6]; 16 g ai/ha): 55; Plant response rating: Pigweed ([7]; 16 g ai/ha): 100 |
| CCOc1nc(-c2ccc(C(F)(F)F)cc2)nn1Cc1ccnc(C(F)(F)F)c1 [Compound 35, 4-[[5-ethoxy-3-[4-(trifluoromethyl)phenyl]-1H-1,2,4-triazole-1-yl]methyl]-2-(trifluoromethyl)pyridine] | 50 | 60 | 80 | 90 | 70 | 60 | 95 | 100 | 100 | 100 | 35 | 55 | 70 | 80 | 80 | 95 | 95 | 100 | 100 | 100 | Plant response rating, Ragweed ([1]; 31 g ai/ha): 20; Plant response rating, Ryegrass, Italian ([2]; 31 g ai/ha): 30; Plant response rating: Foxtail, Green ([6]; 16 g ai/ha): 70; Plant response rating: Pigweed ([7]; 16 g ai/ha): 100 |
| CCOc1nc(-c2ccccc2)nn1Cc1ccnc(C(F)(F)F)c1 [Compound 27] | 90 | 90 | 100 | 95 | 20 | 80 | 10 | 90 | 100 | 100 | 45 | 50 | 55 | 65 | 65 | 80 | 95 | 100 | 100 | 100 | Plant response rating, Ragweed ([1]; 500 g ai/ha, approx. 10 d): 100; Plant response rating, Ryegrass, Italian ([2]; 500 g ai/ha, approx. 10 d): 100; Plant response rating: Foxtail, Green ([6]; 16 g ai/ha): 35; Plant response rating: Pigweed ([7]; 16 g ai/ha): 100 |
| COc1nc(-c2ccc(Cl)cc2)nn1Cc1ccnc(C(F)(F)F)c1 [Compound 28] | 10 | 20 | – | – | – | – | 0 | 20 | 75 | 95 | 25 | 35 | 55 | 60 | 35 | 60 | 80 | 100 | 100 | 100 | Plant response rating, Ragweed ([1]; 500 g ai/ha, approx. 10 d): 40; Plant response rating, Ryegrass, Italian ([2]; 500 g ai/ha, approx. 10 d): 90; Plant response rating: Foxtail, Green ([6]; 16 g ai/ha): 25; Plant response rating: Pigweed ([7]; 16 g ai/ha): 100 |
| CCOc1nc(-c2ccc(F)cc2)nn1Cc1ccnc(C(F)(F)F)c1 [Compound 8, 4-[[5-ethoxy-3-(4-fluorophenyl)-1H-1,2,4-triazol-1-yl]methyl]-2-(trifluoromethyl)pyridine] | – | – | 98 | 100 | 85 | 100 | – | 10 | 30 | 100 | – | 50 | 50 | 75 | 40 | 75 | 75 | 95 | 95 | 100 | pest or weed control at 125 g/ha ([8]; 125 g ai/ha): 100%; pest or weed control at 500 g/ha ([8]; 500 g ai/ha, approx. 10 d): 100%; pest or weed control at 125 g/ha ([9]; 125 g ai/ha): 90%; pest or weed control at 500 g/ha ([9]; 500 g ai/ha): 100%; Plant response rating: Chamomile ([4]; 250 g ai/ha): 100; Plant response rating: Blackgrass ([5]; 250 g ai/ha): 70; Plant response rating: Foxtail, Green ([6]; 250 g ai/ha): 85; Plant response rating: Pigweed ([7]; 250 g ai/ha): 95 |
